Experiment [1] addresses T1, human vanilloid-1 (hVR-1) in hVR-1-HEK293 cell line (Homo sapiens, UniProt Q8NER1).
T1 construct: expressed in transfected cells; host or cells: HEK293 Tet-on strain, doxycycline-induced
The experiment in a line: Inhibitory effect on calcium influx via a vanilloid receptor (capsaicin-stimulated, Fluo-3/AM). It is filed as cell-based. To be noted: hVR-1-HEK293 cells, 1 μM of capsaicin, compounds 0.015˜2000 nM; read-out: I.A. (inhibitory activity), IC50 on intracellular calcium influx. The method, then: The cell line can modulate the expression of VR-1, depending on whether doxycycline, a derivative of tetracycline, is present or not. […] Specifically, hVR-1-HEK293 cells were cultured in a T75 flask to about 80% confluency, separated from the flask by treating with trypsin solution, and then collected by centrifugation. The cells were suspended in a medium containing 1 μg/mL of doxycycline, and the resulting suspension was diluted to a concentration of 2˜4×10^5 cells/mL […], of the cell suspension was placed in each well of a 96-well black plate. The cells were cultured in 5% CO2 incubator at 37° C. for 2 days, and used for the following procedure. […] The cells prepared in 1) above were cultured at 37° C. for 90 min in a solution containing Fluo-3/AM, a fluorescent dye, as a calcium indicator so that the fluorescent dye was permeated into the cells. […] In order to stimulate calcium influx through a vanilloid receptor, the cells were treated with 1 μM of capsaicin. […] The obtained data were input to the Hill equation represented by the following formula I and the values were analyzed: Intracellular calcium influx= [(fluorescent intensity of experimental group−fluorescent intensity of background)/(fluorescent intensity of positive control−fluorescent intensity of background)]*100 [Formula I] The inhibitory activities were evaluated from the obtained intracellular calcium influx values according to the following criteria.

Experiment [2] relates to ICR male mice. The experiment in a line: Phenyl-p-quinone (PBQ)-induced writhing experiment using mice. In kind it is in vivo. The following applies: orally administered, PBQ (0.02%) intraperitoneally after 1 hour, writhing counted for 10 min. The method, then: In order to evaluate the effect on pain of the compounds prepared in the Examples, behaviors such as twisting or writhing of body resulted from pain were verified by the phenyl-p-quinone (PBQ)-induced writhing experiment using mice. 5 week-old ICR male mice were used as experimental animals and PBQ (0.02%), as a chemical stimulator. The suspensions of 20 mg of the compounds of the present invention and an excipient such as Na—CMC (sodium carboxymethyl cellulose) in 10 mL of saline were used as test compounds. The test compounds were orally administered to the mice and after 1 hour, PBQ was intraperitoneally administrated in an amount of 10 mL per kg of body weight. Also, as a control group, equivalent amounts of BCTC were administered. The writhing number of each mouse was measured for 10 min starting from 5 min after the administration, and the analgesic effect was verified by counting the reduced number compared to the control group administered with only excipient and calculating the % inhibitory rate according to the following Formula 2. % inhibition rate=(writhing # of control group−writhing # of test group)/writhing # of control group×100 [Formula 2]
On the technique in general: In writhing tests, fewer writhes than in controls are read as antinociception.

The text below walks through data of patent publication US8362012B2, “Benzoxazine benzimidazole derivative, a pharmaceutical composition comprising the same, and a use thereof” (Daewoong Pharmaceutical Co., Ltd., priority 2008, dated 2013).

Structures are written as SMILES.

By IC50 is commonly meant the point on the concentration scale where inhibition reaches its midpoint.

T1 sequence (Q8NER1 whole entry): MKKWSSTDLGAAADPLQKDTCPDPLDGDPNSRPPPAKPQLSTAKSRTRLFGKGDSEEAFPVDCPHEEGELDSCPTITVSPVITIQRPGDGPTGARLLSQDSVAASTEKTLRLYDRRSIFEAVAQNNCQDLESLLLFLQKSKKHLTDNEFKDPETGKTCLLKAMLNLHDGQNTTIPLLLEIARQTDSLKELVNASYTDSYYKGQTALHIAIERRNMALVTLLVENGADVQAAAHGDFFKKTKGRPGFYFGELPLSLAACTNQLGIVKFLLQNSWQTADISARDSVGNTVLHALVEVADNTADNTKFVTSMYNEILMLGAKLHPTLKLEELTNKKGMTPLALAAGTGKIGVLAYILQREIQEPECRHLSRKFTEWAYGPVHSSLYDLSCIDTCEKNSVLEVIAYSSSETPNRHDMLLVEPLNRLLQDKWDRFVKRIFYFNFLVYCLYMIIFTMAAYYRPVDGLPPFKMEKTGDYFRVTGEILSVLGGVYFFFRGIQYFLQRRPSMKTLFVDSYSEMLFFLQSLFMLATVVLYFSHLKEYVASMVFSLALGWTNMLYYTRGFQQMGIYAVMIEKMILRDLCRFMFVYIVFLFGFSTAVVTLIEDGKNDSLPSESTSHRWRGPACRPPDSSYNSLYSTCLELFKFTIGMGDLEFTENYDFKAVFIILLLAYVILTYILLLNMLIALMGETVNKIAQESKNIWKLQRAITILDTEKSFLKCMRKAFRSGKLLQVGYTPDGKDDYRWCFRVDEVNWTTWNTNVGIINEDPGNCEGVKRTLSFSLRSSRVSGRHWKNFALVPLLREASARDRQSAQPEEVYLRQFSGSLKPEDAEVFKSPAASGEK

Consider `Cc1ccc(N2CCOc3c(-c4nc5cc(Cl)c(Cl)cc5[nH]4)cccc32)nc1` [Example 28, 8-(5,6-dichloro-1H-benzimidazol-2-yl)-4-(5-methyl-pyridin-2-yl)-3,4-dihydro-2H-benzo[1,4]oxazine], for which the 50% inhibitory concentration (IC50) in experiment [1] lay in the range of 20 to 100 nM. In experiment [2], the “I.A. (inhibitory activity), % inhibition rate of writhing” value is “+ (<20%)”.
For `Cc1ccc(N2CCOc3c(-c4nc5c(Br)cc(C(F)(F)F)cc5[nH]4)cccc32)nc1` [Example 31, 8-(4-bromo-6-trifluoromethyl-1H-benzimidazol-2-yl)-4-(5-methyl-pyridin-2-yl)-3,4-dihydro-2H-benzo[1,4]oxazine] the same measures were 20 to 100 nM and “++ (20˜50%)”.
On the same counts, the results for `Cc1ccc(N2CCOc3c(-c4nc5c(F)cc(Br)cc5[nH]4)cccc32)nc1` [Example 33, 8-(6-bromo-4-fluoro-1H-benzimidazol-2-yl)-4-(5-methyl-pyridin-2-yl)-3,4-dihydro-2H-benzo[1,4]oxazine] are 20 to 100 nM and “+++ (51-80%)”.
For `Cc1ccc(N2c3cccc(-c4nc5ccc(C(C)(C)C)cc5[nH]4)c3OC[C@@H]2CO)nc1` [Example 34, [(S)-8-(6-tert-butyl-1H-benzimidazol-2-yl)-4-(5-methyl-pyridin-2-yl)-3,4-dihydro-2H-benzo[1,4]oxazin-3-yl]-methanol] the same measures were less than 20 nM and “+ (<20%)”.
Regarding `Cc1ccc(N2c3cccc(-c4nc5ccc(C(F)(F)F)cc5[nH]4)c3OC[C@@H]2CO)nc1` [Example 35, [(S)-4-(5-methyl-pyridin-2-yl)-8-(6-trifluoromethyl-1H-benzimidazol-2-yl)-3,4-dihydro-2H-benzo[1,4]oxazin-3-yl]-methanol], the IC50 in experiment [1] was less than 20 nM. Besides, the “I.A. (inhibitory activity), % inhibition rate of writhing” value in experiment [2] was “+++ (51-80%)”.
Turning to `Cc1ccc(N2c3cccc(-c4nc5ccc(Br)cc5[nH]4)c3OC[C@@H]2CO)nc1` [Example 36, [(S)-8-(6-bromo-1H-benzimidazol-2-yl)-4-(5-methyl-pyridin-2-yl)-3,4-dihydro-2H-benzo[1,4]oxazin-3-yl]-methanol], the IC50 in experiment [1] is less than 20 nM. The “I.A. (inhibitory activity), % inhibition rate of writhing” value in experiment [2] is recorded as “+++ (51-80%)”.
With `Cc1ccc(N2c3cccc(-c4nc5ccc(Cl)cc5[nH]4)c3OC[C@@H]2CO)nc1` [Example 37, [(S)-8-(6-chloro-1H-benzimidazol-2-yl)-4-(5-methyl-pyridin-2-yl)-3,4-dihydro-2H-benzo[1,4]oxazin-3-yl]-methanol], the 50% inhibitory concentration (IC50) in experiment [1] lay within 20 to 100 nM. For the same molecule, in experiment [2], the “I.A. (inhibitory activity), % inhibition rate of writhing” value is on record as “+++ (51-80%)”.
For `Cc1ccc(N2c3cccc(-c4nc5cc(Cl)c(Cl)cc5[nH]4)c3OC[C@@H]2CO)nc1` [Example 38, [(S)-8-(5,6-dichloro-1H-benzimidazol-2-yl)-4-(5-methyl-pyridin-2-yl)-3,4-dihydro-2H-benzo[1,4]oxazin-3-yl]-methanol] the same measures were less than 20 nM and “+++ (51-80%)”.
For `Cc1ccc(N2c3cccc(-c4nc5c(Cl)cc(C(F)(F)F)cc5[nH]4)c3OC[C@@H]2CO)nc1` [Example 39, [(S)-8-(4-chloro-6-trifluoromethyl-1H-benzimidazol-2-yl)-4-(5-methyl-pyridin-2-yl)-3,4-dihydro-2H-benzo[1,4]oxazin-3-yl]-methanol] the same measures were less than 20 nM and “+++ (51-80%)”.
On the same counts, the results for `Cc1ccc(N2c3cccc(-c4nc5c(C(F)(F)F)cc(C(F)(F)F)cc5[nH]4)c3OC[C@@H]2CO)nc1` [Example 40, [(S)-8-(4,6-bis-trifluoromethyl-1H-benzimidazol-2-yl)-4-(5-methyl-pyridin-2-yl)-3,4-dihydro-2H-benzo[1,4]oxazin-3-yl]-methanol] are 20 to 100 nM and “++++ (>80%)”.
